EC50 data for seven compounds are collected here from ChEMBL document CHEMBL1141810, “Excavatolides F-M, new briarane diterpenes from the gorgonian Briareum excavatum” (1999).

Holding throughout (format): functional
Common to all, as to conditions: read-out: ED50 (the source's name)

One assay relates to HT-29. The assay can be described thus: Cytotoxicity against human HT-29 cells by MTT assay. (In general: Formazan colour is commonly taken as a measure of viable cells.)
The test system of the next assay is A549. In words: Cytotoxicity against human A549 cells by MTT assay.
For a further assay, the system named is P388. In words: Cytotoxicity against mouse P388 cells by MTT assay.
Another assay relates to KB. In words: Cytotoxicity against human KB cells by MTT assay.

Molecules are shown by their SMILES. Converted amounts (≈) assume the structure as drawn.

Consider `CCCC(=O)O[C@H]1C[C@H](OC(C)=O)[C@@]2(C)[C@H]([C@H]1C)[C@@H](OC(C)=O)[C@]13O[C@@]1(C)C(=O)O[C@H]3/C=C(/C)C[C@H](OC(=O)CCC)[C@H]2OC(C)=O` [EXCAVATOLIDE H], for which the EC50 in the assay on HT-29, in the assay on A549, in the assay on P388 and in the assay on KB was over 50 µg/mL throughout.
For the compound `CCCC(=O)O[C@H]1C/C(C)=C\[C@@H]2OC(=O)[C@]3(C)O[C@]23[C@H](OC(C)=O)[C@H]2[C@@H](C)[C@@H](OC(C)=O)C[C@H](OC(C)=O)[C@]2(C)[C@@H]1OC(C)=O` [EXCAVATOLIDE I], the EC50 in the assay on HT-29, with A549, in the assay on P388 and with KB was over 50 µg/mL each time.
With `CCCC(=O)O[C@H]1C[C@H](OC(C)=O)[C@@]2(C)[C@H]([C@H]1C)[C@@H](OC(C)=O)[C@]13O[C@@]1(C)C(=O)O[C@H]3/C=C(C)\C=C\[C@@H]2OC(C)=O` [EXCAVATOLIDE F], the EC50 with HT-29 was determined as 5.5 µg/mL (≈ 9.54 µM); with A549 it was 5.2 µg/mL (≈ 9.02 µM); in the assay on P388 it was 6.2 µg/mL (≈ 10.8 µM); in the assay with KB, 7 µg/mL (≈ 12.1 µM).
For `CC(=O)O[C@H]1C/C(C)=C\[C@@H]2OC(=O)[C@]3(C)O[C@]23[C@H](O)[C@H]2[C@@H](C)[C@@H](O)C[C@H](OC(C)=O)[C@]2(C)[C@@H]1O` [EXCAVATOLIDE M] the same measures were 2.2 µg/mL (≈ 4.56 µM), 0.1 µg/mL (≈ 0.207 µM), 0.001 µg/mL (≈ 0.00207 µM) and 1 µg/mL (≈ 2.07 µM).
For the compound `CC(=O)O[C@H]1C[C@H](OC(C)=O)[C@@]2(C)[C@H]([C@H]1C)[C@@H](OC(C)=O)[C@]13O[C@@]1(C)C(=O)O[C@H]3/C=C(/C)C[C@H](OC(C)=O)[C@H]2OC(C)=O` [EXCAVATOLIDE K], the EC50 in the assay on HT-29 was 1.3 µg/mL (≈ 2.14 µM); with A549, 3 µg/mL (≈ 4.93 µM); in the assay on P388, 0.9 µg/mL (≈ 1.48 µM); in the assay on KB, 3.3 µg/mL (≈ 5.42 µM).
For `CC(=O)O[C@H]1C[C@H](OC(C)=O)[C@@]2(C)[C@H]([C@H]1C)[C@@H](OC(C)=O)[C@]13O[C@@]1(C)C(=O)O[C@H]3/C=C(/C)CC[C@H]2OC(C)=O` [EXCAVATOLIDE G] the same measures were over 50 µg/mL, 22.8 µg/mL (≈ 41.4 µM), 15.7 µg/mL (≈ 28.5 µM) and over 50 µg/mL.
Take `CCCC(=O)O[C@H]1C[C@H](OC(C)=O)[C@@]2(C)[C@H]([C@H]1C)[C@@H](OC(C)=O)[C@]13O[C@@]1(C)C(=O)O[C@H]3/C=C(/C)C[C@H](OC(C)=O)[C@H]2OC(C)=O` [EXCAVATOLIDE J]: the EC50 in the assay on HT-29 came to 5.2 µg/mL (≈ 8.17 µM); in the assay on A549, 5.2 µg/mL (≈ 8.17 µM); with P388, 3.8 µg/mL (≈ 5.97 µM); in the assay with KB, 6.5 µg/mL (≈ 10.2 µM).
